Results as given in patent US20070142456A1, “Method for inhibiting cancer development by fatty acid synthase inhibitors” (FASgen, LLC, priority 2002, published 2007).

Tests used:
NT5 cancer cells = experiment: Inhibition of NT5 cancer cell growth in vitro (crystal violet, O.D. 490 nm); type: cell-based, mouse; conditions: 72 hours, FIG. 2
Description: (See FIG. 2). 1×10^4 cells were plated in 24-well plates. Following overnight attachment, cells were treated with C75 or cerulenin diluted in DMSO at 5 mg/ml, with control cells receiving vehicle alone. After 72 hours, cells were stained with crystal violet (0.2% in 10% methanol), solubilized in 1% SDS, and the O.D. measured at 490 nm. Two-tailed t-test: Control-C75 5 μg/ml, p=0.0003; Control-C75 10 μg/ml, p<0.0001; Control-Cerulenin 5 μg/ml, p<0.0001; Control-Cerulenin 10 μg/ml, p<0.0001.

[1] = test system: HER-2/neu breast cancer transgenic mice; experiment: Inhibition of cancer development in HER-2/neu breast cancer transgenic mouse model; type: in vivo
From the text: Derived from the FVB/N strain, neu-N transgenic mice express the non-transforming rat neu cDNA under the control of a mammary-specific promoter. As a consequence, the mice develop spontaneous mammary adenocarcinomas beginning at approximately 125 days, with nearly all of the mice harboring tumors by 300 days (Guy, C., Webster, M., Schaller, M., Parsons, T., Cardiff, R., and Muller, W., “Expression of the neu protooncogene in the mammary epithelium of transgenic mice induces metastatic disease,” Proc. Natl. Acad. Sci. USA, 89: 10578-10582, 1992). […] Although the activated neu model has the advantage of more rapid tumor development (Guy, C., Cardiff, R., and Muller, W., “Activated neu induces rapid tumor progression,” Journal of Biological Chemistry, 271: 7673-7678, 1996), this point mutation has not been identified in human breast cancer (Lofts, F. and Gullick, W., “C-erbB2 amplification and overexpression in human tumors,” Cancer Treat. Res., 61: 161-179, 1992). Thus, the HER-2/neu breast cancer transgenic mouse model more closely resembles human disease where neu is overexpressed, not mutated.
(See FIG. 4) Thirty HER-2/neu breast cancer transgenic mice were used for the study. Fifteen (15) mice received weekly doses of C75 (30 mg/kg in 0.1 ml RPMI) for three months beginning at 5 weeks of age and 15 mice received vehicle alone. Mice were observed daily and the first appearance of breast tumors were recorded. Two (2) mice in the controls and 6 in the treated group died during the study. […] Fifty-percent (50%) of the control mice developed tumors after approximately 200 days versus 300 days for the C75 treated animals. Moreover, three treated animals remained tumor free for nearly 18 months, the duration of their lives.

[2] = test system: mammary glands of FVB/N mice; experiment: Mammary gland development in non-transgenic FVB/N control mice treated with C75; type: in vivo; conditions: FVB/N animals, FIG. 9
Description: (§1) Fifteen 8-10 week old, neu-N transgenic mice were treated intraperitoneally (ip) with C75 at 30 mg/kg weekly, along with fifteen vehicle controls (RPMI). Three mice from the treatment and control groups were sacrificed by carbon dioxide asphyxiation at two-week intervals beginning at week two (two weeks after the first C75 treatment at 8-10 weeks of age). All animals were injected with 1 mg of BrdU two hours prior to sacrifice. Entire inguinal mammary glands were removed along with the intramammary lymph node that was grossly identifiable. Additionally, kidneys, liver and skin samples were collected from each animal. The […] from one side and the kidneys, liver and skin samples were fixed in neutral-buffered formalin, the other was fixed in Carnoy's fixative for whole-mount preparation. In addition, mammary glands from a non-transgenic age-matched FVB/N control mouse were removed for similar analysis at week 10 (age 18-20 weeks).

[3] = test system: fatty acid synthesis in NT5 cancer cells; experiment: Inhibition of fatty acid synthesis: [14C]acetate incorporation into total lipids in NT5 cells; type: cell-based, mouse; conditions: 4 h treatment, [14C]acetate during last 2 h, FIG. 1
Description: (See FIG. 1). 5×10^4 NT5 cells were plated in 24-well plates. Following overnight attachment, cells were treated with cerulenin and C75 diluted in DMSO at 5 mg/ml for 4 h, with control cells receiving vehicle alone. During the last 2 h of drug treatment, cells were treated with 1 μCi [^14C]acetate. Total lipids were then extracted and counted. Statistical analysis (i.e., two tailed t-tests) of the results are as follows: Control-C75 5 μg/ml, p=0.116; Control-C75 10 μg/ml, p=0.018; Control-Cerulenin 5 μg/ml, p=0.002; Control-Cerulenin 10 μg/ml, p=0.002.
NT cell lines are established from tumors that developed in transgenic mice (Reilly, R., Gottlieb, M., Ercolini, A., Machiels, J., Kane, C., Okoye, F., Muller, W., Dixon, K., and Jaffee, E., “HER-2neu Is a Tumor Rejection Target in Tolerized HER-2/neu Transgenic Mice,” Cancer Research, 60: 3569-3576, 2000; Reilly, R., Machiels, J., Emens, L., Ercolini, A., Okoye, F., Lei, R., Weintraub, D., and Jaffee, E., “The Collaboration of Both Humoral and Cellular HER-2/neu-targeted Immune Responses Is Required for the Complete Eradication of HER-2/neu-expressing Tumors,” Cancer Research, 61: 880-883, 2001), and provide an in vitro model for testing the FAS inhibitors C75 and cerulenin.

[4] = test system: mammary glands of neu-N transgenic mice; experiment: Mechanism of action: mammary gland whole mounts and immunohistochemistry in neu-N transgenic mice; type: in vivo, mouse; conditions: 30 mg/kg ip weekly
Description: as §1
Following fixation in 10% neutral-buffered formalin for 24 hours, the mammary glands were embedded in paraffin. Six 4 micron slides were prepared from each tissue block, with the first slide stained with hematoxylin and eosin. The remaining unstained sections were utilized for immunohistochemical analysis of the preneoplastic lesions and surrounding breast tissue with the following antibodies: FAS, BrdU and p21/Waf-1 (Dako, Carpinteria, Calif.), Akt and Phospho-Akt (Cell Signaling Technology, Beverly, Mass.), and neu (Santa Cruz Biotechnology, Inc., Santa Cruz, Calif.) apoptosis (ApopTag Peroxidase In Situ Oligo Ligation Kit, Serologicals Corporation, Temecula, Calif.). Staining was assessed by counting the number of positive cells per 500 total cells in the ductal and lobular structures at 400×. Statistical analysis was performed using t-tests on Prism 3 software. The Carnoy's fixed tissue was stained with carmine red as described and whole-mounted on glass slides.

[5] = test system: NT5 cancer cell allografts; experiment: Growth of NT5 cancer cell allografts in FVB/N mice; type: in vivo; conditions: 30 mg/kg intraperitoneal every six days, FIG. 3
Description: (See FIG. 3). Fourteen animals received 0.1 ml packed cultured NT5 cells in the flank. When measurable tumors appeared, seven animals were treated with C75 (30 mg/kg in 0.1 ml RPMI, intraperitoneal injection) every six days and seven animals received vehicle control. Error bars in FIG. 3 represent standard error of the mean.

[6] = 30 mg/kg weekly for three months beginning at 5 weeks of age
[7] = immunohistochemistry, versus controls and FVB/N mice
[8] = mammary tissue, versus controls and FVB/N mice

Compound | growth of NT5 cancer cells (O.D. 490 nm) (NT5 cancer cells) | time after which 50% of the mice developed tumors [1, 6] | tumor development (log-rank analysis) [1, 6] | time three treated animals remained tumor free (duration of their lives) ([1]; 30 mg/kg weekly for three months, three of 15 treated animals) | development of cancer ([1]; HER-2/neu transgenic mice, FIG. 4) | time three animals remained tumor free (duration of their lives) ([1]; as restated in the description) | mice that died during the study ([1]; treated group of 15 mice, 30 mg/kg weekly, 2 died in controls) | morphological difference in mammary structures, C75 treated versus controls [2] | inhibition of fatty acid synthesis in NT5 cells [3] | tissue restriction of the effects (other normal duct structures in skin, liver or kidney) [4] | number of mammary duct structures, their thickness and number of budding epithelial structures ([4]; following 8-10 weeks of treatment, versus vehicle controls and FVB/N animals) | Akt expression [4, 7] | FAS expression [4, 7] | Phospho-Akt expression [4, 7] | neu expression [4, 7] | p21/Waf1 expression [4, 7] | DNA synthesis (BrdU) [4, 8] | apoptotic changes [4, 8] | growth of NT5 tumor cell allografts [5]
C=C1C(=O)OC(CCCCCCCC)C1C(=O)O (stereo not drawn) [C75, tetrahydro-3-methylene-2-oxo-5-n-octyl-4-furancarboxylic acid] | significantly reduced the growth of the cancer cells | ~300 days | significantly delayed | ~18 months | significantly inhibited the development of cancer | ~1.5 years | 6 mice | no significant morphological difference | inhibit fatty acid synthesis in NT5 cells at levels similar to previous studies with human cell lines | restricted to the breast epithelial cells that overexpress neu | significant reduction | decreased | decreased | decreased | decreased | decreased | decreased | increased | significantly reduced the growth
C/C=C/C/C=C/CCC(=O)[C@H]1O[C@H]1C(N)=O [cerulenin, 2,3-epoxy-4-oxo-7,10-dodecadienoylamide, reference compound] | significantly reduced the growth of the cancer cells | – | – | – | – | – | – | – | inhibit fatty acid synthesis in NT5 cells at levels similar to previous studies with human cell lines | – | – | – | – | – | – | – | – | – | –
